In this assay the target is DNMT1 (Homo sapiens, UniProt P26358). As to the kind of experiment: DNMT1 inhibition assay (transfer of radioactivity from [Me-3H]-SAM to hemimethylated double-stranded DNA). The class given is biochemical. The following applies: 100 nM DNMT1, 1 μM [Me-3H]-SAM, 1 μM 26 bp hemimethylated DNA substrate, 37° C., 2 hours. The source says: Human DNMT1 C-terminal catalytic domain gene was codon-optimised for E. coli by DNA2.0. The gene was cloned into the pD431-SR vector, KanR resistance, inducible by IPTG. The codon-optimisation gave yields 5 to 10 times greater than previously published reports (e.g. Song, J., Rechkoblit, O., Bestor, T. H., and Patel, D. J., (2011) Science 331(6020): 1036-1040; and Song, 3., Teplova, M., Ishibe-Murakami, S., and Patel, D. J., (2012) Science 335(6069): 709-712). The protein construct has N-terminal His-tag, a SUMO tag, a SUMO protease cleavage site, and the DNMT-catalytic domain.
DNMT1, sequence (P26358 whole entry, looked up, the tested form may be a part): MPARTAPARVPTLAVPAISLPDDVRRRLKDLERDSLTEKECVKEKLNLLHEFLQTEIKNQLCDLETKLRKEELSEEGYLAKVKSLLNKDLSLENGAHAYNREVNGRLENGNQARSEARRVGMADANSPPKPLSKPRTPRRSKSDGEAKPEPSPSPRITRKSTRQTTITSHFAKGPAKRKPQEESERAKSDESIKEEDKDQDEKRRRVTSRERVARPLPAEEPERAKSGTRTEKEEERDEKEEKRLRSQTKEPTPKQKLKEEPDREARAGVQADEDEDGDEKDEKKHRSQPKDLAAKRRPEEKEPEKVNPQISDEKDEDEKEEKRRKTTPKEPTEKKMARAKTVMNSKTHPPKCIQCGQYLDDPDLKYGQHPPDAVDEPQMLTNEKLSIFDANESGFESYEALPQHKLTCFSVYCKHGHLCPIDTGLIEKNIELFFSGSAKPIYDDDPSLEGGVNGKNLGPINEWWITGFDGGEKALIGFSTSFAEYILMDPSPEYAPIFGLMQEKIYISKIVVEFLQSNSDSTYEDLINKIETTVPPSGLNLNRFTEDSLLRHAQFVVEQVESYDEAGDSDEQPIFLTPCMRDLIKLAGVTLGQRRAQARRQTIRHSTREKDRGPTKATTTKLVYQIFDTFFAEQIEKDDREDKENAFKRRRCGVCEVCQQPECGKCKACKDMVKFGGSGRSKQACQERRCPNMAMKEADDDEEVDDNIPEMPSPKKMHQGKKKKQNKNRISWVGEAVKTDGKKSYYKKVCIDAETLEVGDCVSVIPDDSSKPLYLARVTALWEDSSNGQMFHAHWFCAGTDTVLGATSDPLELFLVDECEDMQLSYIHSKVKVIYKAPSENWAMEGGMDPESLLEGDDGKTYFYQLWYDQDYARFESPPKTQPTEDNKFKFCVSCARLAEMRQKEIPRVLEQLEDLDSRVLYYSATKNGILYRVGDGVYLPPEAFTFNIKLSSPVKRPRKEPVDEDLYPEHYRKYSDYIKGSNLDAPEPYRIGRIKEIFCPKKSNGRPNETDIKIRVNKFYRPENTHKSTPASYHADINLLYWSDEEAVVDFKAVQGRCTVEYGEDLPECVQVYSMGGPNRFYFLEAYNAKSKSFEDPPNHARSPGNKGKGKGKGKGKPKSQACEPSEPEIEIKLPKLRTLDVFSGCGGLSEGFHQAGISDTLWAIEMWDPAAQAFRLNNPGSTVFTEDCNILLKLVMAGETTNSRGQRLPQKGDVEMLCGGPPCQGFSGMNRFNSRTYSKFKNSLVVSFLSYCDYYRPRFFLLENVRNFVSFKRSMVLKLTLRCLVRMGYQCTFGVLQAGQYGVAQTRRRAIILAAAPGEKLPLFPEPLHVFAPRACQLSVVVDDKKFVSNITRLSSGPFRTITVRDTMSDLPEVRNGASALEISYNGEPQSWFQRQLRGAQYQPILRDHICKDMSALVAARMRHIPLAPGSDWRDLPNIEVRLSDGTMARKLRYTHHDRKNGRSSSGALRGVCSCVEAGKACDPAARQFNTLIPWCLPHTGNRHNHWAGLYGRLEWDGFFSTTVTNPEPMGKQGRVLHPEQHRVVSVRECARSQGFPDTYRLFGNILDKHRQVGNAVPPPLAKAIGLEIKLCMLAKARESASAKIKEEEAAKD
DNMT1 inhibitors were assayed by measuring the transfer of radioactivity from tritiated S-adenosylmethionine (SAM) to double-stranded DNA (Du, Q., Z. Wang, Z., and Schramm, V. L., Proc. Natl. Acad. Sci. USA, 2016, 113, 2916-2921). The double stranded DNA molecule contains exactly one hemimethylated CpG located in the centre of the sequence. The design allows one methylation occurrence per DNA molecule, preventing any processive methylation along or across the strand.
[Me-^3H] S-Adenosyl methionine ([Me-^3H]-SAM) was enzymatically synthesized using bacterial chlorinase (SaIL) enzyme (Nat Chem Biol. 2008 Jan.; 4 (1):69-74. Epub 2007 Dec. 2. Discovery and characterization of a marine bacterial SAM-dependent chlorinase. Eustáquio AS^1, Pojer F, Noel J P, Moore B S.), starting from 5′-Chloro-5′-deoxyadenosine and L-[Methyl-^3H]-Methionine (Org Biomol Chem. 2016 Jul. 14; 14(26):6189-92. doi: 10.1039/c6ob00844e. Epub 2016 Jun. 6. Chemoenzymatic synthesis and utilization of a SAM analog with an isomorphic nucleobase. Vranken C^1, Fin A, Tufar P, Hofkens J, Burkart M D, Tor Y.). A reaction (500 μL) containing 500 μCi L-[Methyl-3H]-Methionine (PerkinElmer), 0.3 mM unlabeled methionine, 1 mM 5′-Chloro-5′-deoxyadenosine, 50 mM phosphate buffer pH 7.6 and 20 μM SaIL enzyme was incubated at room temperature. After 2 hours of incubation, reaction was stopped using 50 mM sulfuric acid. The [Me-^3H]-SAM was purified using C-18 reverse-phase HPLC using a gradient (buffer A: 50 mM ammonium acetate pH 4.3; buffer B: 0.1% acetic acid and 50% acetonitrile). The fractions containing [Me-^3H]-SAM were pooled and lyophilized overnight. Purified [Me-^3H]-SAM was always kept frozen at −80° C. until further use.
The DNMT1 assays were carried to determine the IC50 with transition state analogs. The reaction (100 μL) containing 50 mM Tris-HCl pH 8.0, 100 mM KCl, 50 ug/mL BSA, 2 mM DTT, 1 μM freshly prepared [Me-3H]-SAM, 1 μM 26 bp hemimethylated DNA substrate and varying concentrations of each inhibitor ([…]), incubated at 37° C. with 100 nM DNMT1. The reaction fractions (50 μL) were taken at 2 hours. The methylated DNA was purified by using Micro Bio-spin P-30 columns (Bio-Rad). Purified samples were mixed with 10 mL of scintillation liquid (PerkinElmer), and counted for radioactivity in a Tricarb 2910 TR scintillation counter (PerkinElmer). The values obtained in the absence of DNMT1 in the reaction were used as controls. The assay data were analyzed using GraphPad Prism for IC50 calculations. The hemimethylated DNA sequences used in the assays contained 26 bp, as follows: 26a oligo 5′-[…]-3′ [SEQ ID No. 1], and 26bm oligo 5′-ACTCATACCAAT/iMe-dC/GATACCAAGGTAG-3′ [SEQ ID No. 2], where iMe-dC is a 5-methyl-C base.
IC50 values were obtained from plots of percent inhibition versus inhibitor concentration.
On to `Nc1nc(=O)n(C2C[C@H](O)[C@@H](CO)O2)cc1CCCN(CC[C@H](N)C(=O)O)C[C@H]1O[C@@H](n2cnc3c(N)ncnc32)[C@H](O)[C@@H]1O` (stereo in doubt) [Compound 33, (S)-2-amino-4-((3-(4-amino-1-((2S,4S,5R)-4-hydroxy-5-(hydroxymethyl)tetrahydrofuran-2-yl)-2-oxo-1,2-dihydropyrimidin-5-yl)propyl)(((2R,3S,4R,5R)-5-(6-amino-9H-purin-9-yl)-3,4-dihydroxytetrahydrofuran-2-yl)methyl)amino)butanoic acid], for which the IC50 is 0.8 ± 0.1 µM. As for `Nc1nc(=O)n(C2C[C@H](O)[C@@H](CO)O2)cc1SCCN(CC[C@H](N)C(=O)O)C[C@H]1O[C@@H](n2cnc3c(N)ncnc32)[C@H](O)[C@@H]1O` (stereo in doubt) [Compound 42, (S)-2-amino-4-((2-((4-amino-1-((2S,4S,5R)-4-hydroxy-5-(hydroxymethyl)tetrahydrofuran-2-yl)-2-oxo-1,2-dihydropyrimidin-5-yl)thio)ethyl)(((2R,3S,4R,5R)-5-(6-amino-9H-purin-9-yl)-3,4-dihydroxytetrahydrofuran-2-yl)methyl)amino)butanoic acid], the IC50 was 15.4 ± 6.2 µM.

For `Nc1nc(=O)n(C2C[C@H](O)[C@@H](CO)O2)cc1CCN(CC[C@H](N)C(=O)O)C[C@H]1O[C@@H](n2cnc3c(N)ncnc32)[C@H](O)[C@@H]1O` (stereo in doubt) [Compound 56, (S)-2-amino-4-((2-(4-amino-1-((2S,4S,5R)-4-hydroxy-5-(hydroxymethyl)tetrahydrofuran-2-yl)-2-oxo-1,2-dihydropyrimidin-5-yl)ethyl)(((2R,3S,4R,5R)-5-(6-amino-9H-purin-9-yl)-3,4-dihydroxytetrahydrofuran-2-yl)methyl)amino)butanoic acid], the IC50 is 1.9 ± 0.1 µM. Take `Nc1nc(=O)n([C@H]2C[C@H](O)[C@@H](CO)O2)cc1CN(CC[C@H](N)C(=O)O)C[C@H]1O[C@@H](n2cnc3c(N)ncnc32)[C@H](O)[C@@H]1O` [Compound 7, (S)-2-amino-4-(((4-amino-1-((2R,4S,5R)-4-hydroxy-5-(hydroxymethyl)tetrahydrofuran-2-yl)-2-oxo-1,2-dihydropyrimidin-5-yl)methyl)(((2R,3S,4R,5R)-5-(6-amino-9H-purin-9-yl)-3,4-dihydroxytetrahydrofuran-2-yl)methyl)amino)butanoic acid]: the IC50 was determined as 0.7 ± 0.1 µM. For the compound `Nc1nc(=O)n([C@H]2C[C@H](O)[C@@H](CO)O2)cc1CNCC(CC[C@H](N)C(=O)O)C[C@H]1O[C@@H](n2cnc3c(N)ncnc32)[C@H](O)[C@@H]1O` (stereo partly drawn) [Compound 70, 2-amino-5-[[[4-amino-1-[(2R,4S,5R)-4-hydroxy-5-(hydroxymethyl)tetrahydrofuran-2-yl]-2-oxo-pyrimidin-5-yl]methylamino]methyl]-6-[(2R,3S,4R,5R)-5-(6-aminopurin-9-yl)-3,4-dihydroxy-tetrahydrofuran-2-yl]hexanoic acid], the IC50 was determined as 2.2 ± 0.5 µM. In the case of `NC1=NC(=O)N([C@H]2C[C@H](O)[C@@H](CO)O2)CN1CCCCCN(CC[C@H](N)C(=O)O)C[C@H]1O[C@@H](n2cnc3c(N)ncnc32)[C@H](O)[C@@H]1O` [Compound 86, (S)-2-amino-4-((5-(6-amino-3-((2R,4S,5R)-4-hydroxy-5-(hydroxymethyl)tetrahydrofuran-2-yl)-4-oxo-3,4-dihydro-1,3,5-triazin-1(2H)-yl)pentyl)(((2R,3S,4R,5R)-5-(6-amino-9H-purin-9-yl)-3,4-dihydroxytetrahydrofuran-2-yl)methyl)amino)butanoic acid], the IC50 amounted to 6 ± 1.8 µM.

Source of the values: patent publication US11518779B2, “Inhibitors of DNMT1 as anticancer therapeutic agents” (Victoria Link Limited, priority 2018, dated 2022).
